The test system of one data set is S. epidermidis 511. The data set can be described thus: MIC, hospital methicillin-resistant strains (MRSE). As to conditions: hospital MRSE strain S. epidermidis 511.
Data set [1] concerns PC3 (metastatic prostate cancer). Description: Cytotoxicity, MTT assay. The class given is cell-based, human. Conditions: 72 h, mean SD. On the procedure:
(§1) MTT assay was performed as previously described. Experiments were repeated three times. […] Decreased relative MTT level means decreased cell viability.

Data set [2] has as its system SW620 (metastatic colon cancer). The data set can be described thus: Cytotoxicity, MTT assay. The class given is cell-based, human. Conditions: 72 h, mean SD. On the procedure:
as §1
(Tetrazolium dyes change colour on reduction, which living cells bring about.)

Data set [3] has as its system SW480 (primary colon cancer). The data set can be described thus: Cytotoxicity, MTT assay. The class given is cell-based, human. Conditions: 72 h, mean SD. On the procedure: as §1
Another data set concerns S. epidermidis 436. Description: MIC, hospital methicillin-resistant strains (MRSE). As to conditions: hospital MRSE strain S. epidermidis 436.
A further data set relates to M. tuberculosis H37Rv. The data set can be described thus: Tuberculostatic activity, Microplate Alamar Blue Assay (MABA). The class given is cell-based, Mycobacterium tuberculosis. As to conditions: M. tuberculosis H37Rv, standard strain, MABA. In general terms: The colour change of resazurin is a common sign of viable cells or microbes.
In another data set the test system is S. aureus 498. Description: MIC, hospital methicillin-resistant strains (MRSA). Conditions: hospital MRSA strain S. aureus 498.
In data set [4] the test system is S. epidermidis ATCC 35984. The data set can be described thus: MIC, twofold serial microdilution, standard strains. As to conditions: S. epidermidis ATCC 35984, standard strain.
The test system of a further data set is S. epidermidis 431. Description: MIC, hospital methicillin-resistant strains (MRSE). As to conditions: hospital MRSE strain S. epidermidis 431.
In another data set the test system is S. epidermidis 423. The data set can be described thus: MIC, hospital methicillin-resistant strains (MRSE). Conditions: hospital MRSE strain S. epidermidis 423.
For data set [5], the system named is C. parapsilosis ATCC 22019. The data set can be described thus: MIC, twofold serial microdilution, standard fungal strains. Conditions: C. parapsilosis ATCC 22019, standard strain. (Broth dilution looks for growth in wells or tubes with falling amounts of substance.)
For the next data set, the system named is E. coli NCTC 10538. Description: MIC, twofold serial microdilution, standard strains. As to conditions: E. coli NCTC 10538, standard strain.
A further data set has as its system S. aureus 585. The data set can be described thus: MIC, hospital methicillin-resistant strains (MRSA). As to conditions: hospital MRSA strain S. aureus 585.
A further data set concerns S. epidermidis 420. The data set can be described thus: MIC, hospital methicillin-resistant strains (MRSE). As to conditions: hospital MRSE strain S. epidermidis 420.
The subject of another data set is S. epidermidis 433. Description: MIC, hospital methicillin-resistant strains (MRSE). As to conditions: hospital MRSE strain S. epidermidis 433.
In a further data set the test system is S. aureus 572. Description: MIC, hospital methicillin-resistant strains (MRSA). Conditions: hospital MRSA strain S. aureus 572.
Data set [6] concerns Bacillus subtilis M45 (rec−). As to conditions: B. subtilis M45 (rec−); 256 µg per 9 mm disc (NOQ 2 µg per disc). On the procedure: (§2) DNA-damaging activity of compounds was tested by rec-assay using two genetically modified Bacillus subtilis strains: M45 (rec^−) and H17 (rec^+). Tested compounds were dissolved in DMSO, and 10 µL of each solution was dripped onto sterile cotton discs (Rotilabo) to load 256 µg of a given compound per 9 mm disc. Discs were placed on the surface Nutrient agar plates (Difco) inoculated with 100 µL of bacterial overnight culture and incubated for 24 h at 35 °C. After incubation, the growth inhibition zones were measured. […] Results of the genotoxicity test were estimated after 18 h of incubation at 35 °C by comparing the diameter of the inhibition zone on the B. subtilis M45 (rec^−) strain with that on the B. subtilis H17 (rec^+) strain.

Data set [7] has as its system Bacillus subtilis H17 (rec+). Conditions: B. subtilis H17 (rec+); 256 µg per 9 mm disc (NOQ 2 µg per disc). On the procedure: as §2
The test system of another data set is SW480, SW620, and PC3. The data set can be described thus: Cytotoxicity, MTT assay, all cancer cell lines. The class given is cell-based, human. As to conditions: 72 h, read-out: IC50 towards all investigated cancer cells. On the procedure:
as §1

Data set [8] has as its target T1, S. aureus topoisomerase IV (Staphylococcus aureus, UniProt P0C1S7+P0C1U9).
T1 construct: purchased Inspiralis, Norwich, UK
The data set can be described thus: S. aureus topoisomerase IV decatenation assay. The class given is biochemical. Conditions: kDNA decatenation, 30 min at 37 °C.
Method: The assay was performed using a S. aureus topoisomerase IV decantation kit (Inspiralis, Norwich, UK). Kinetoplast DNA (kDNA) was the substrate for topoisomerase IV. Firstly, 1 U of topoisomerase IV decatenated 200 ng of kDNA, in the dedicated decantation assay buffer supplied by the manufacturer. […] The reactions were terminated by adding an equal volume of STEB buffer (40% sucrose, 100 mM Tris-HCl pH 8, 1 mM EDTA, 0.5 mg/mL bromophenol blue), followed by extraction with 1 volume of chloroform/isoamyl alcohol (24:1). Then, 20 µL of the aqueous phase of each sample was loaded onto a 1% agarose gel. Electrophoresis was conducted in Tris-acetate-EDTA buffer for 1.5 h at 80 V. Gels were stained with ethidium bromide and visualized under UV light in a transilluminator (ChemiDoc MP, Bio-Rad, Hercules, CA, USA).

In another data set the test system is staphylococcal isolates. Description: MIC, standard staphylococcal strains. As to conditions: text summary of Table 4.
The target in another data set is T2, S. aureus DNA gyrase (Staphylococcus aureus, UniProt P0A0K8+P20831).
T2 construct: purchased Inspiralis, Norwich, UK
T2 sequence (P20831 whole entry): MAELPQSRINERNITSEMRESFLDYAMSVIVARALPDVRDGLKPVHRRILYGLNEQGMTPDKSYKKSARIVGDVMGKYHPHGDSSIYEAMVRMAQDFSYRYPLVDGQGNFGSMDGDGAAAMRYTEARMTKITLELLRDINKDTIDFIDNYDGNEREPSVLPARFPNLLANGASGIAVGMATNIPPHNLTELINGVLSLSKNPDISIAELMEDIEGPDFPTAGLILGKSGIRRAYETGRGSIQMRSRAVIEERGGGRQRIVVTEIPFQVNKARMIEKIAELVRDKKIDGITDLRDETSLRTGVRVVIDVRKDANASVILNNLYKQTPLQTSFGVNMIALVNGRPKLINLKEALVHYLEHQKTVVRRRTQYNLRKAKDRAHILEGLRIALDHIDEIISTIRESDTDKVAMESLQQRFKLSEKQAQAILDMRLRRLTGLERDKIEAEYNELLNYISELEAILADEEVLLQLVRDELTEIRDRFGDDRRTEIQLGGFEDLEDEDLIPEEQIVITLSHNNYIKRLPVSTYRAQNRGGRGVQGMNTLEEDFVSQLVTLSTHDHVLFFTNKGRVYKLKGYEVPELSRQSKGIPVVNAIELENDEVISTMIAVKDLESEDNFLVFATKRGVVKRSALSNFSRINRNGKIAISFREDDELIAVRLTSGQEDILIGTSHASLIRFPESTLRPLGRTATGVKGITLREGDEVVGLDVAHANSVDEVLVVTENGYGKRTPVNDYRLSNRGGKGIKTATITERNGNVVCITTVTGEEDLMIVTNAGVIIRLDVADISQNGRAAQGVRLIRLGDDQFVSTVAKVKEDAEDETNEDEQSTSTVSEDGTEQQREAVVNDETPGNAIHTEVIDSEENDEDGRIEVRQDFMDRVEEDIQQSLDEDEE
T2 sequence (P0A0K8 whole entry): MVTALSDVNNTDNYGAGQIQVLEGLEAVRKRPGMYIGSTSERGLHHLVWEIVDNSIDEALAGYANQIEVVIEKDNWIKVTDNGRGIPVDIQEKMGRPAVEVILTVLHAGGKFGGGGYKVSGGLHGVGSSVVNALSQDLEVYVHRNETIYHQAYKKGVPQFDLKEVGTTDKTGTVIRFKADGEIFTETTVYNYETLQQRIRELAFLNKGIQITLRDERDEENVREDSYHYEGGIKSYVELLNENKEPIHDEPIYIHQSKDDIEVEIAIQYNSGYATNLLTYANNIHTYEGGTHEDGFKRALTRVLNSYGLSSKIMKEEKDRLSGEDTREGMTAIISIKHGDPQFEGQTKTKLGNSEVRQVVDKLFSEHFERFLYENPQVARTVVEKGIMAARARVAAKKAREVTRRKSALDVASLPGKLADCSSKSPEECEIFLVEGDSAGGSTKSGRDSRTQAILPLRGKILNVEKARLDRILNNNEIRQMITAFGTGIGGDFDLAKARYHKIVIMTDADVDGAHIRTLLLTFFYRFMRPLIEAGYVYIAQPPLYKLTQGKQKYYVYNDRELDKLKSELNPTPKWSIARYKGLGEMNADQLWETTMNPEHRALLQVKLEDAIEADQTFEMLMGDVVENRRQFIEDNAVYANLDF
The data set can be described thus: S. aureus DNA gyrase supercoiling assay. The class given is biochemical. As to conditions: pBR322 supercoiling, 30 min at 37 °C.

SMILES strings stand for the structures. A value given as a limit tells only on which side of the number the result lay.

These results are taken from publication PMC9779606, “Synthesis, Structural Characterization and Biological Activity Evaluation of Novel Cu(II) Complexes with 3-(trifluoromethyl)phenylthiourea Derivatives” (International Journal of Molecular Sciences, 2022).

T1 sequence (P0C1S7 whole entry): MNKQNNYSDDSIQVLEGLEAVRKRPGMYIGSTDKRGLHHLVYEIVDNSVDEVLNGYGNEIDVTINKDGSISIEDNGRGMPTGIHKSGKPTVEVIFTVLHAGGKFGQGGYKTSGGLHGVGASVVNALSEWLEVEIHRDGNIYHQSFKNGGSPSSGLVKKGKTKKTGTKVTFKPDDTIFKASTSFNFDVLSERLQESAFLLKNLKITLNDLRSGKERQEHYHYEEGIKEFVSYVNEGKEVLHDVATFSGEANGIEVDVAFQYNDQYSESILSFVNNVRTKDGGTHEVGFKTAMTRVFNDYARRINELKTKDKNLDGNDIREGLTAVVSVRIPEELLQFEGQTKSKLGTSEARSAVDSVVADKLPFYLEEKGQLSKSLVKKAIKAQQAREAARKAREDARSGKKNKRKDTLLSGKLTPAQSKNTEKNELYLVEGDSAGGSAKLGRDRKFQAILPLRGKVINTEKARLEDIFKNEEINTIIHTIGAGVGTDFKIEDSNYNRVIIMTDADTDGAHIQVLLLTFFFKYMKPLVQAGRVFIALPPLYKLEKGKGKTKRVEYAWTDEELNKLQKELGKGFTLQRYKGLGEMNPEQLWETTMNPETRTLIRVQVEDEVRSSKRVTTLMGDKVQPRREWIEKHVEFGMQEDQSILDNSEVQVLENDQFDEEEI
T1 sequence (P0C1U9 whole entry): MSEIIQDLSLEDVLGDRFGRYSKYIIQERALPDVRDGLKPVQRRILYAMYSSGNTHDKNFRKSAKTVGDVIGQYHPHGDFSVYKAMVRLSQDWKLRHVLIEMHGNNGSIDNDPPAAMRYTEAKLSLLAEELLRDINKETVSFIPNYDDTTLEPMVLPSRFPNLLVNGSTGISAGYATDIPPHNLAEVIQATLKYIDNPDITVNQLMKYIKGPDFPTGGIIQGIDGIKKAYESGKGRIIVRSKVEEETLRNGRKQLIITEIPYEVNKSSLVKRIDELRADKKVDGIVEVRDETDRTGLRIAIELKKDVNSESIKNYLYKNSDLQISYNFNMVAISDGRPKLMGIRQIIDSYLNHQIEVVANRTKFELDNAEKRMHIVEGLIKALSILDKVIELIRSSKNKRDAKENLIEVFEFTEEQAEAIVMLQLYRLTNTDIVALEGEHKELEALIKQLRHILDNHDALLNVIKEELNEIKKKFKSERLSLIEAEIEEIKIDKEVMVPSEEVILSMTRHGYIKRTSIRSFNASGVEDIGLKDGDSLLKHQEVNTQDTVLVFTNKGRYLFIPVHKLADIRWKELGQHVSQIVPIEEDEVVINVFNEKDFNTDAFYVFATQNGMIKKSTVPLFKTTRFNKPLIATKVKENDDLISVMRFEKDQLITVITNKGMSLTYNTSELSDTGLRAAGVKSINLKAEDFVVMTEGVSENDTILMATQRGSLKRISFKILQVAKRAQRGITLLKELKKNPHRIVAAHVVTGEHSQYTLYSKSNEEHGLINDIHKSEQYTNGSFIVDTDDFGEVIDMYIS
Method for S. aureus DNA gyrase: The assay was performed using a S. aureus DNA Gyrase Supercoiling kit (Inspiralis, Norwich, UK). The activity of DNA topoisomerase II was determined by measuring the conversion of relaxed pBR322 DNA to its supercoiled form. The reaction mixture contained 500 ng of mMpBR322 plasmid DNA and 1 U of enzyme and different concentrations of the compound in a total reaction volume of 30 µL. The mixture was incubated for 30 min at 37 °C. The reactions were terminated by adding an equal volume of STEB buffer (40% sucrose, 100 mM Tris-HCl pH 8, 1 mM EDTA, 0.5 mg/mL bromophenol blue), followed by extraction with 1 volume of chloroform/isoamyl alcohol (24:1). Then, 20 µL of the aqueous phase of each sample was loaded onto a 1% agarose gel. Electrophoresis was conducted in Tris-acetate-EDTA buffer for 3 h at 50 V. Gels were stained with ethidium bromide and visualized under UV light in a transilluminator (ChemiDoc MP, Bio-Rad, Hercules, CA, USA).

As usually defined, the MIC is the smallest concentration in the dilution series that meets the test's criterion for growth inhibition. Read a high MIC as a need for much substance. What is called IC50 is the point on the concentration scale where inhibition reaches its midpoint. As for `FC(F)(F)c1cccc([N-]C(=S)NCCc2ccccc2)c1.FC(F)(F)c1cccc([N-]C(=S)NCCc2ccccc2)c1.O.[Cu+2]` [Cu1, Copper(II) Complex with 1-(2-phenylethyl)-3-[3-(trifluoromethyl)phenyl]thiourea], the MIC against S. epidermidis 511 turned out to be 128 mg/L; in the data set with S. epidermidis 436 it was 128 mg/L; against M. tuberculosis H37Rv, 16 mg/L; in the data set with S. aureus 498 it was 64 mg/L; in data set [4], 64 mg/L; against S. epidermidis 431, 128 mg/L. In addition, the minimal inhibitory concentration (MIC) against S. epidermidis 423 was 64 mg/L; in data set [5], 64 mg/L; in the data set on E. coli NCTC 10538 it was at least 256 mg/L; against S. aureus 585, 64 mg/L; in the data set on S. epidermidis 420, 64 mg/L; against S. epidermidis 433, 64 mg/L. The minimum inhibitory concentration (MIC) against S. aureus 572 was found to be 64 mg/L. Besides, the half-inhibitory concentration (IC50) in data set [1] was found to be 100 ± 3.6 µM; in data set [2] it was 62.6 ± 4.9 µM; in data set [3] it was 68.7 ± 3.4 µM. Further, the “Genotoxic activity, inhibition zone diameter, M45” value in data set [6] is given as 16 mm. For the same molecule, the “Genotoxic activity, inhibition zone diameter, H17” value in data set [7] was determined as 16 mm.
Consider `O.O=[N+]([O-])c1cc(NC(=S)[N-]c2cccc(C(F)(F)F)c2)ccc1Cl.O=[N+]([O-])c1cc(NC(=S)[N-]c2cccc(C(F)(F)F)c2)ccc1Cl.[Cu+2]` [Cu5, Copper(II) Complex with 1-(4-chloro-3-nitrophenyl)-3-[3-(trifluoromethyl)phenyl]thiourea], for which the minimum inhibitory concentration (MIC) was determined as 4 mg/L against S. epidermidis 511; 2 mg/L in the data set with S. epidermidis 436; 4 mg/L in the data set with M. tuberculosis H37Rv; 2 mg/L in the data set on S. aureus 498; 4 mg/L in data set [4]; 2 mg/L against S. epidermidis 431. Further, the MIC with S. epidermidis 423 is 4 mg/L; in data set [5], 128 mg/L; in the data set with E. coli NCTC 10538 it was over 256 mg/L; in the data set on S. aureus 585, 4 mg/L; in the data set with S. epidermidis 420, 4 mg/L; against S. epidermidis 433, 2 mg/L. In the data set on S. aureus 572, the minimum inhibitory concentration (MIC) is 2 mg/L. Moreover, the IC50 is 11.7 to 19.5 µM with SW480, SW620, and PC3; 11.7 ± 0.9 µM in data set [1]; 19.5 ± 1.3 µM in data set [2]; 14.8 ± 1.2 µM in data set [3]. In addition, the “IC50 ± S.E.M. for Topo IV” value in data set [8] turned out to be 6.20 ± 0.50 mg/L. The “MIC, staphylococcal isolates” value with staphylococcal isolates was 4 mg/L. Moreover, the “Genotoxic activity, inhibition zone diameter, M45” value in [6] is reported as 17 mm. The “Genotoxic activity, inhibition zone diameter, H17” value in data set [7] came to 18 mm. Further, the “IC50 ± S.E.M. for Gyrase” value against S. aureus DNA gyrase turned out to be 16.80 ± 0.75 mg/L.
Consider `FC(F)(F)c1cccc([N-]C(=S)NCc2ccccc2)c1.FC(F)(F)c1cccc([N-]C(=S)NCc2ccccc2)c1.[Cu+2]` [Cu3, Copper(II) Complex with 1-benzyl-3-[3-(trifluoromethyl)phenyl]thiourea], for which the minimum inhibitory concentration (MIC) worked out at 64 mg/L in the data set with S. epidermidis 511; 64 mg/L in the data set with S. epidermidis 436; 16 mg/L in the data set on M. tuberculosis H37Rv; 64 mg/L in the data set with S. aureus 498; 64 mg/L in data set [4]; 64 mg/L against S. epidermidis 431. The minimum inhibitory concentration (MIC) against S. epidermidis 423 is 64 mg/L; in data set [5] it was 32 mg/L; against E. coli NCTC 10538 it was at least 256 mg/L; in the data set on S. aureus 585 it was 64 mg/L; in the data set with S. epidermidis 420, 64 mg/L; in the data set with S. epidermidis 433, 64 mg/L. For the same molecule, the minimal inhibitory concentration (MIC) with S. aureus 572 turned out to be 64 mg/L. Moreover, the figures for the IC50 in data set [1], in data set [2] and in data set [3] were 49.4 ± 2.4 µM, 44.8 ± 5.6 µM and 38.3 ± 3.1 µM, respectively. The “Genotoxic activity, inhibition zone diameter, M45” value in [6] was 15 mm. Also, the “Genotoxic activity, inhibition zone diameter, H17” value in data set [7] amounted to 15 mm.
Regarding `CC(NC(=S)[N-]c1cccc(C(F)(F)F)c1)c1ccccc1.CC(NC(=S)[N-]c1cccc(C(F)(F)F)c1)c1ccccc1.[Cu+2]` (racemic) [Cu2, Copper(II) Complex with 1-(1-phenylethyl)-3-[3-(trifluoromethyl)phenyl]thiourea], the MIC turned out to be 16 mg/L in the data set with S. epidermidis 511; 16 mg/L in the data set on S. epidermidis 436; 8 mg/L with M. tuberculosis H37Rv; 8 mg/L in the data set on S. aureus 498; 16 mg/L in [4]; 16 mg/L against S. epidermidis 431. Besides, the minimum inhibitory concentration (MIC) was 16 mg/L against S. epidermidis 423; 128 mg/L in [5]; at least 256 mg/L against E. coli NCTC 10538; 8 mg/L against S. aureus 585; 16 mg/L in the data set with S. epidermidis 420; 16 mg/L with S. epidermidis 433. The minimum inhibitory concentration (MIC) against S. aureus 572 turned out to be 16 mg/L. The IC50 is 89.7 ± 1.9 µM in [1], 23.3 µM in data set [2] and 41.6 ± 4.3 µM in data set [3]. The “Genotoxic activity, inhibition zone diameter, M45” value in [6] came to 16 mm. In data set [7], the “Genotoxic activity, inhibition zone diameter, H17” value turned out to be 16 mm.
Consider `FC(F)(F)c1cccc([N-]C(=S)Nc2cccc(Br)c2)c1.FC(F)(F)c1cccc([N-]C(=S)Nc2cccc(Br)c2)c1.[Cu+2]` [Cu4, Copper(II) Complex with 1-(3-bromophenyl)-3-[3-(trifluoromethyl)phenyl] thiourea], for which the minimum inhibitory concentration (MIC) with S. epidermidis 511 was determined as 8 mg/L; in the data set with S. epidermidis 436, 8 mg/L; against M. tuberculosis H37Rv, 4 mg/L; with S. aureus 498, 8 mg/L; in data set [4], 8 mg/L; in the data set with S. epidermidis 431, 8 mg/L. The MIC with S. epidermidis 423 was 8 mg/L; in data set [5] it was at least 256 mg/L; in the data set with E. coli NCTC 10538, 128 mg/L; with S. aureus 585 it was 8 mg/L; in the data set with S. epidermidis 420, 8 mg/L; in the data set with S. epidermidis 433, 8 mg/L. For the same molecule, in the data set on S. aureus 572, the MIC was 8 mg/L. Moreover, the IC50 in data set [1] stood at 70.1 ± 5.3 µM; in data set [2] it was 69.1 ± 1.8 µM; in data set [3] it was 89.8 ± 2.6 µM. Further, the “MIC, staphylococcal isolates” value in the data set with staphylococcal isolates was determined as 8 mg/L. Further, the “Genotoxic activity, inhibition zone diameter, M45” value in [6] came to 17 mm. In addition, the “Genotoxic activity, inhibition zone diameter, H17” value in data set [7] worked out at 15 mm.
